What was measured:
[1] = system: freshly isolated rat hepatocytes; assay: Uptake into freshly isolated rat hepatocytes; settings: for Uptake rat hepatocytes: 100 μmol Gd/L, 10 min, 37° C., relative to RC1 (Gd-EOB-DTPA); for Inhibition Rifampicine: rat hepatocyte uptake, test item and Rifampicine 1:1, each 100 μM
[2] = target: T1, OATP1B3 (Homo sapiens, UniProt Q9NPD5); assay: Uptake into stable transfected OATP1B3 HEK 293 cells; type: cell-based; settings: for Uptake into OATP1B3-HEK 293 cells: 40 min incubation, relative to RC1 (Gd-EOB-DTPA); for Inhibition Rifampicine: uptake into OATP1B3-HEK 293 cells
T1 sequence (Q9NPD5 1-702): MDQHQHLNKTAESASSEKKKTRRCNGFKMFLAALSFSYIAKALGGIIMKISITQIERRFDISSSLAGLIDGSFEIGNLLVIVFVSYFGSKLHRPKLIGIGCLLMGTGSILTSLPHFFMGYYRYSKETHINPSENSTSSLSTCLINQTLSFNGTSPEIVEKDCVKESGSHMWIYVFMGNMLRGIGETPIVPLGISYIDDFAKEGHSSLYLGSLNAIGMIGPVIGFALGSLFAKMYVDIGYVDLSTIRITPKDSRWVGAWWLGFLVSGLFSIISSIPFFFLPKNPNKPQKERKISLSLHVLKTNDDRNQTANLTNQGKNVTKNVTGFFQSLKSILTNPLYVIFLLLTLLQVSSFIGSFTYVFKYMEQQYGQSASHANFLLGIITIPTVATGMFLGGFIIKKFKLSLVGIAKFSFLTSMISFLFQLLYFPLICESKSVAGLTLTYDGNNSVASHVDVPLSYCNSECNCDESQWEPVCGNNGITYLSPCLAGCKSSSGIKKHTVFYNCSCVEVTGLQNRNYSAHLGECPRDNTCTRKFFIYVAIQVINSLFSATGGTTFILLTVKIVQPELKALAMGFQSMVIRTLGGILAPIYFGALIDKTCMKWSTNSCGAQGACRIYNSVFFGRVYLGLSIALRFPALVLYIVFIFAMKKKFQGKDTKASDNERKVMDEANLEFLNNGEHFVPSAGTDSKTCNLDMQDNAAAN
In short: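 HEK 293 cells stably transfected with human OATP1B3 were incubated for 40 min with test items at 100 μM final in transport buffer, in triplicate, then washed with cold PBS. Gadoxetate (Gd-EOB-DTPA) served as the reference standard on the same plate.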

[3] = Water solubility in aqueous buffer; settings: aqueous buffer 10 mM Tris-HCl, pH 7.4, 20° C.
Protocol: The solid compounds were added stepwise to the buffer solution. More substance is added once all the suspended material is dissolved until an equilibrium between undissolved and dissolved substance is reached. The suspension was mixed using a shaker (Heidolph Reax 2000) and treated 5 min in an ultrasound bath (Bandelin, Sonorex Super RK255H).

[4] = Relaxivity measurements at 1.41 T in human plasma; type: physicochemical; settings: 37° C., normalized to Gd
In short: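 T1 determined by inversion recovery (8 inversion-time steps) and T2 by CPMG sequence, both with relaxation delay ≥5×T1. Each relaxivity used three Gd concentrations between 0.05 and 2 mM. Relaxivities were derived from relaxation rates measured in water and plasma.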

[5] = Complex stability (transmetallation) against Zn2+ in phosphate buffer; settings: 72 hours, 2.5 mM Zn^2+, 26 mM phosphate buffer, 37° C., pH 7.4
Source text: If test compounds are instable under these conditions, transmetallation during this test would lead to the formation of the Zn^2+ complex of the test item, while Gd^3+ is released and precipitated as highly insoluble GdPO4.

[6] = target: T2, OATP1B1 (Homo sapiens, UniProt Q9Y6L6); assay: Uptake into stable transfected OATP1B1 HEK 293 cells; type: cell-based; settings: for Uptake into OATP1B1-HEK 293 cells: 40 min incubation, relative to RC1 (Gd-EOB-DTPA); for Inhibition Rifampicine: uptake into OATP1B1-HEK 293 cells
T2 sequence (Q9Y6L6 1-691): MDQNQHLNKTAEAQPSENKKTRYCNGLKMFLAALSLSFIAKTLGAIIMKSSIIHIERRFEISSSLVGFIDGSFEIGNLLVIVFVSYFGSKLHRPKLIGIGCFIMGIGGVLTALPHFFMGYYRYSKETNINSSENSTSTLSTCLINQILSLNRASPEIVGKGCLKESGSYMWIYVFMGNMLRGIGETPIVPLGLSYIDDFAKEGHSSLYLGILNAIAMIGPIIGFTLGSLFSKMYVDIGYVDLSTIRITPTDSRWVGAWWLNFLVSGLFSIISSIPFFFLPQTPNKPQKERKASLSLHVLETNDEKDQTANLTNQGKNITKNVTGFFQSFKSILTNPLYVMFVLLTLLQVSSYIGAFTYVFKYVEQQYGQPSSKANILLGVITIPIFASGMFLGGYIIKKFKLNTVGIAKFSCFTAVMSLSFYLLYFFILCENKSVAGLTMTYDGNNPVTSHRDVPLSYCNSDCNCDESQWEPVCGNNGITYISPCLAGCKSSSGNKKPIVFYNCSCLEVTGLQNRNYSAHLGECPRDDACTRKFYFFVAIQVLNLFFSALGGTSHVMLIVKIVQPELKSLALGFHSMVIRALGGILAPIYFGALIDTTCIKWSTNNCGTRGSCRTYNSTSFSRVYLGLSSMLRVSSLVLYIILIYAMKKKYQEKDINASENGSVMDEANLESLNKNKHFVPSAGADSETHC
In short: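 Stably transfected OATP1B1 HEK293 cells incubated 40 min without shaking with test item at 100 µM final in transport buffer, in triplicate. Cells then washed with cold PBS; gadoxetate run on the same plate as reference.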

[7] = Relaxivity measurements at 1.41 T in water; type: physicochemical; settings: 37° C., normalized to Gd
In short: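 T1 by inversion recovery and T2 by CPMG at 1.41 T (60 MHz), 37° C, relaxation delay ≥5×T1. Three Gd concentrations between 0.05 and 2 mM; relaxivities derived from measured relaxation rates in water.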

[8] = Partition coefficient (log P butanol/buffer); type: physicochemical; settings: 1-butanol / 50 mM Tris-HCl, pH 7.4, room temperature

Compound	Uptake rat hepatocytes [1]	Inhibition Rifampicine [1] [% inhibition]	Uptake into OATP1B3-HEK 293 cells [2]	Inhibition Rifampicine [2] [% inhibition]	Solubility [3] [mM]	r1 human plasma [4] [L/mmol/s]	Transmetallation stability [5] [%]	Uptake into OATP1B1-HEK 293 cells [6]	Inhibition Rifampicine [6] [% inhibition]	r1 water [7] [L/mmol/s]	Log P (partition coefficient butanol/buffer) [8]
CCCOc1ccc(CC(C(=O)O)N2CCN(CC(=O)[O-])CCN(CC(=O)[O-])CCN(CC(=O)[O-])CC2)cc1.[Gd+3] (stereo not shown) [Example 48, gadolinium 2,2′,2″-{10-[1-carboxy-2-(4-propoxyphenyl)ethyl]-1,4,7,10-tetraazacyclododecane-1,4,7-triyl}triacetate]	77 % of RC1	98	11 % of RC1	81	16	9.3	99	240 % of RC1	92	4.0	
CCOCCOCCOc1ccc(CCCC(C(=O)O)N2CCN(C(CO)C(=O)[O-])CCN(C(CO)C(=O)[O-])CCN(C(CO)C(=O)[O-])CC2)cc1.[Gd+3] (stereo not shown) [Example 17, gadolinium-2,2′,2″-{10-[1-carboxy-4-{4-[2-(2-ethoxyethoxy)ethoxy]phenyl}butyl]-1,4,7,10-tetraazacyclododecane-1,4,7-triyl}tris(3-hydroxypropanoate)]	71 % of RC1	91		98	>217	10.1	98		88	5.3	
CCOCCOCCOc1ccc(C[C@@H](C(=O)O)N2CCN(CC(=O)[O-])CCN(CC(=O)[O-])CCN(CC(=O)[O-])CC2)cc1.[Gd+3] [Example 3, gadolinium 2,2′,2″-{10-[(1S)-1-carboxy-2-{4-[2-(2-ethoxyethoxy)ethoxy]phenyl}ethyl]-1,4,7,10-tetraazacyclododecane-1,4,7-triyl}triacetate]	47 % of RC1	96	18 % of RC1	89	>331	6.5		63 % of RC1	29	4.3	−1.61
CCOCCOCCOc1ccc(CCC[C@H](C(=O)O)N2CCN([C@H](CO)C(=O)[O-])CCN([C@H](CO)C(=O)[O-])CCN([C@H](CO)C(=O)[O-])CC2)cc1.[Gd+3] [Example 19, gadolinium (2R,2′R,2″R)-2,2′,2″-{10-[(1R)-1-carboxy-4-{4-[2-(2-ethoxyethoxy)ethoxy]phenyl}butyl]-1,4,7,10-tetraazacyclododecane-1,4,7-triyl}tris(3-hydroxypropanoate)]	92 % of RC1	92		96	>410	9.0			92	5.3	−0.95
CCOCCOCCOc1ccc(CC(C(=O)O)N2CCN(CC(=O)[O-])CCN(CC(=O)[O-])CCN(CC(=O)[O-])CC2)nc1.[Gd+3] (stereo not shown) [Example 23, gadolinium 2,2′,2″-{10-[1-carboxy-2-{5-[2-(2-ethoxyethoxy)ethoxy]pyridin-2-yl}ethyl]-1,4,7,10-tetraazacyclododecane-1,4,7-triyl}triacetate]	17 % of RC1	73		71	>241	6.0			0	4.5	−1.94
O=C([O-])CN1CCN(CC(=O)[O-])CCN([C@H](Cc2ccc(OCC(F)(F)F)cc2)C(=O)O)CCN(CC(=O)[O-])CC1.[Gd+3] [Example 47, gadolinium 2,2′,2″-(10-{(1R)-1-carboxy-2-[4-(2,2,2-trifluoroethoxy)phenyl]ethyl}-1,4,7,10-tetraazacyclododecane-1,4,7-triyl)triacetate]	55 % of RC1	82	19 % of RC1	90	>229	7.8		13 % of RC1	93	3.7	−0.77
CCOCCOc1ccc(CC(C(=O)O)N2CCN(CC(=O)[O-])CCN(CC(=O)[O-])CCN(CC(=O)[O-])CC2)cc1.[Gd+3] (stereo not shown) [Example 32, gadolinium 2,2′,2″-(10-{1-carboxy-2-[4-(2-ethoxyethoxy)phenyl]ethyl}-1,4,7,10-tetraazacyclododecane-1,4,7-triyl)triacetate]	54 % of RC1	93	22 % of RC1	94	>198	6.6		147 % of RC1	72	4.1	−1.53

Reference: US20260083864A1, “CONTRAST AGENTS FOR USE IN DIAGNOSTIC COMPUTED TOMOGRAPHY IMAGING” (Bayer Aktiengesellschaft, priority 2022, published 2026)
